# Measurements published in patent publication EP1038880B1, “Androstanes and pregnanes for allosteric modulation of GABA receptor” (priority 1994, dated 1995).
# Read-outs that look alike come from different tables or passages of the source.
# Tests used:
# mice = conditions: data from Swinyard & Woodhead 1982; cited from earlier work
# [1] = target: T1, Hippocampal Mineralocorticoid Receptors (Rattus norvegicus, UniProt P22199); assay: Inhibition of 3H-aldosterone binding, brain cytosol; parameters: species or system rats; conditions: competitor 10^-6M; 3 nM 3H-aldosterone, RU28362 0.5 µM
# T1 construct: To isolate the mineralocorticoid receptor, brain cytosol fractions were prepared; from tissue; host or cells: rat brain (hippocampal) cytosol
# T1 sequence (P22199 1-981): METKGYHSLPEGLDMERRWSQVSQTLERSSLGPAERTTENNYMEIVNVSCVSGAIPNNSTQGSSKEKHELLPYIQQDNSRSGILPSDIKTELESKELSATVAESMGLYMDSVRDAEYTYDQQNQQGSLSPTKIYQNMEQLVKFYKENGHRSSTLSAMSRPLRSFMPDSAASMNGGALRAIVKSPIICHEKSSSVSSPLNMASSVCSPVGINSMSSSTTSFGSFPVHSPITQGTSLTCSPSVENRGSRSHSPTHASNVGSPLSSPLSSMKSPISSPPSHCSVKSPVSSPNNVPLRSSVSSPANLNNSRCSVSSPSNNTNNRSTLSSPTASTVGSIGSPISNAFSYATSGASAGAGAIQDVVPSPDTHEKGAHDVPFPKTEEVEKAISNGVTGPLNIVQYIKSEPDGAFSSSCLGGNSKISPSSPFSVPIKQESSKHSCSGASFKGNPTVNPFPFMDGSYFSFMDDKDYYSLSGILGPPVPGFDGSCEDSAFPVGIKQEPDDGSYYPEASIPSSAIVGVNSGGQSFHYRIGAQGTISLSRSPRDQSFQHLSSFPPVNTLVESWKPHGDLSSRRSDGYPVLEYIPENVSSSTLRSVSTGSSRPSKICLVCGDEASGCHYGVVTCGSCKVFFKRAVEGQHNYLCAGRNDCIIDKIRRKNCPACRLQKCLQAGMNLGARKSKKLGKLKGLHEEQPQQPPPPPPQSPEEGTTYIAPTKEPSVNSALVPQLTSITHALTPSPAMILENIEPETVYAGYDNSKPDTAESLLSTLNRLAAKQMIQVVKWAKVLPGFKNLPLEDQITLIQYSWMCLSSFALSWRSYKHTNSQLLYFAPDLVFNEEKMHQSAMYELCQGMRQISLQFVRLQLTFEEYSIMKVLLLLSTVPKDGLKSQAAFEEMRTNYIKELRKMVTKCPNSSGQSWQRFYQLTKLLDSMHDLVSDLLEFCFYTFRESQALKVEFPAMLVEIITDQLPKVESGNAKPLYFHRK
# Procedure: Various hormonal activities of representative neuroactive steroids were further studied through testing their potential estrogenic, mineralocorticoid and glucocorticoid activities. These activities were analyzed by monitoring the ability of the compounds to inhibit binding of the steroid hormones to their respective hormone receptors.
# In Table 3, rats were adrenalectomized 3 days prior to sacrifice. […] Table 2. Inhibition of 3H-Progesterone Binding to the Bovine Uteral Progesterone Receptors
# Table 3. Inhibition of 3H-Aldosterone Binding to Hippocampal Mineralocorticoid Receptors
# [2] = target: T2, Bovine Uteral Estrogen Receptors (Bos taurus, UniProt P49884); assay: Inhibition of 3H-estradiol binding, uteri cytosol; conditions: competitor 10^-6M; 3H-estradiol 0.15 nM
# T2 construct: from tissue; host or cells: bovine uteri cytosol
# T2 sequence (P49884 1-596): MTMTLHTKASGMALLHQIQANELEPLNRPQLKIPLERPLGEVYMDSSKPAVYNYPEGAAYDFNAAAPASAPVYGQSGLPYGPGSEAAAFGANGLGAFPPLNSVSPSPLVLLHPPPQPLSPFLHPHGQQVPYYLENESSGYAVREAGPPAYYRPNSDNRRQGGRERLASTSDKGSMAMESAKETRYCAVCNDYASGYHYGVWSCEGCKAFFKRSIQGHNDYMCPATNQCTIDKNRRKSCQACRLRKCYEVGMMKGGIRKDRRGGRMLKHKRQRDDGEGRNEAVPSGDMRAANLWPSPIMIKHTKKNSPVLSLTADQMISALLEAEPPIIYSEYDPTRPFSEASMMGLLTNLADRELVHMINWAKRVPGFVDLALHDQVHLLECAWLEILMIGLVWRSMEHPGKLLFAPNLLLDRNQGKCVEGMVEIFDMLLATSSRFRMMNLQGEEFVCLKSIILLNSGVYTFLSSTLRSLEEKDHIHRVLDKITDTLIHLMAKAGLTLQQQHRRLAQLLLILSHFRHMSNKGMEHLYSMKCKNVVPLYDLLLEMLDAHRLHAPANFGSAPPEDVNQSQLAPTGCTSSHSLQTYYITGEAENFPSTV
# [3] = test system: Bovine Uteral Progesterone Receptors; assay: Inhibition of 3H-progesterone binding, uterus cytosol; conditions: competitor 10^-6M; 3H-progesterone 0.15 nM
# Procedure: The data presented were obtained by performing assays in accordance with the procedures described in et al. 1988 previously to determine the effect of progesterone metabolites and their derivatives and the progestin R5020 on the binding of [^3H]R5020 to the progesterone receptor in rat uterus (Gee et al. 1988).
# ^3H-progesterone (0.15 nM) was incubated with the rat uterus cytosol in the presence of the test compounds. The specific binding were determined after incubation and compared to the control incubation without the compounds. The data are expressed as percent inhibition of binding.
# In Table 3, rats were adrenalectomized 3 days prior to sacrifice. To isolate the mineralocorticoid receptor, brain cytosol fractions were prepared as describe in Gee, et al. 1988. The drugs were incubated with 3 nM of ^3H-aldosterone (the specific ligand for the mineralocorticoid receptor) in the presence of the selective type II agonist RU28362 (0.5 µM) which blocks ^3H-aldosterone binding to the type II (glucocorticoid) receptors. Table 2. Inhibition of 3H-Progesterone Binding to the Bovine Uteral Progesterone Receptors
# tonic seizure = conditions: cited from earlier work
# picrotoxin = conditions: cited from earlier work
# strychnine = conditions: convulsant i.v.; data from Worms et al. 1982; cited from earlier work
# (+)bicuculline = conditions: cited from earlier work
# [4] = test system: metrazol induced convulsions; conditions: cited from earlier work
# [5] = convulsant i.v., data from Worms et al. 1982
# [6] = data from Swinyard & Woodhead 1982
compound,measurement,setting,value
CCC1(c2ccccc2)C(=O)NC(=O)NC1=O [Phenobarbital],ED50 RR,mice,69 mg/kg
"5α-pregnan-3β,20-trimethyl-3α,20-diol",% of Inhibition,[1],0%
same,% of Inhibition,[2],0%
same,% of Inhibition,[3],8%
NC(=O)CCC/N=C(\c1ccc(Cl)cc1)c1cc(F)ccc1O [Progabide],ED50 MES,tonic seizure; data from Worms et al. 1982,75 mg/kg
same,ED50 PICRO,picrotoxin; [5],105 mg/kg
same,ED50 STR,strychnine,75 mg/kg
same,ED50 BIC,(+)bicuculline; [5],30 mg/kg
same,ED50 MTZ,[4]; [5],30 mg/kg
O=C1CN=C(c2ccccc2Cl)c2cc([N+](=O)[O-])ccc2N1 [Clonazepam],ED50 MES,tonic seizure; [6],93 mg/kg
same,ED50 PICRO,picrotoxin; [6],0.043 mg/kg
same,ED50 RR,mice,0.184 mg/kg
same,ED50 BIC,(+)bicuculline; [6],0.0086 mg/kg
same,ED50 MTZ,[4]; [6],0.009 mg/kg
